What is called IC50 is the point on the concentration scale where inhibition reaches its midpoint.

This experiment relates to Wnt pathway. The experiment in a line: Wnt pathway Super-top flash (STF) reporter gene assay (primary assay). Conditions: HEK293 STF cells co-cultured 1:1 with L Wnt3A cells; 48 h incubation; inhibition of luminescence signaling. The experiment is classed as cell-based. The method, boiled down:
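HEK293 cells stably carrying a Super-Top Flash TCF-luciferase reporter were co-cultured 1:1 with L Wnt3A cells for 24 h, then exposed to compound dilutions for 48 h at 37 °C. Luminescence read-out (Bright-Glo); IC50 from inhibition of luminescence.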

For the compound `COc1cc(CNc2nccc(-c3ccc4ncccc4c3)c2F)cnc1-c1ccnc(C)c1` [Compound A-106], the IC50 was 0.24 nM.
With `Cc1cc(-c2ccc(CNc3ncnc(-c4ccc5ncsc5c4)c3F)cn2)ccn1` [Compound A-50], the IC50 came to 1 nM.
As to `O=S1(=O)CCN(c2ccc(CNc3nsc(-c4ccc5ncccc5c4)n3)cn2)CC1` [Compound A-188], the IC50 was determined as 4.6 nM.
`COc1cc(CNc2ncnc(N3CCn4nccc4C3)c2F)cnc1-c1ccnc(C)c1` [Compound A-94]: the IC50 came out at 0.8 nM.
Consider `Cc1cc(-c2ncc(CNc3nccc(-c4ccc5ncccc5c4)c3F)cn2)ccn1` [Compound A-100], for which the concentration for half-maximal inhibition (IC50) was determined as 0.27 nM.
With `Cc1cc(-c2ccc(CNc3ncnc(-c4cnc5ccccc5c4)c3F)cc2)ccn1` [Compound A-2] the figure was 2.9 nM.
In the case of `Cc1cc(-c2ncc(CNc3nccc(-c4cncc(C#N)c4)c3F)cc2C#N)ccn1` [Compound A-131], the half-inhibitory concentration (IC50) is 1 nM.
On to `Cc1cc(-c2ncc(CNc3nccc(-c4ccc5ncccc5n4)c3O)cc2F)ccn1` [Compound A-176, 2-((3-fluoro-2′-methyl-2,4′-bipyridin-5-yl)methylamino)-4-(1,5-naphthyridin-2-yl)pyridin-3-ol], for which the IC50 was 18 nM.
As to `Cc1cc(-c2ncc(CNc3ncnc(N4CCn5nncc5C4)c3F)cc2F)ccn1` [Compound A-95], the half-maximal inhibitory concentration (IC50) amounted to 15 nM.
Under `N#Cc1ccc2nc(CNc3nccc(-c4ccc5ncccc5c4)c3F)ccc2c1` [Compound A-109] stands 10 nM; under `Cc1cc(-c2ncc(CNc3ncnc(N4CCn5nnnc5C4)c3F)cc2F)ccn1` [Compound A-93], 40 nM; under `Cc1cc(-c2ncc(CNc3ncnc(-c4cc5cccnc5cn4)c3F)cc2F)ccn1` [Compound A-85, 5-fluoro-N-((3-fluoro-2′-methyl-2,4′-bipyridin-5-yl)methyl)-6-(1,7-naphthyridin-6-yl)pyrimidin-4-amine], 0.14 nM.
As for `COc1cc(CNc2ncnc(-c3cc4cccnc4cn3)c2F)cnc1-c1ccnc(C)c1` [Compound A-84], the IC50 was 0.26 nM.
As for `Cc1cc(-c2ccc(CNc3ccnc(-c4ccc5ccccc5c4)n3)cc2)ccn1` [Compound A-151], the half-maximal inhibitory concentration (IC50) turned out to be 2000 nM.
`N#Cc1cnc2cc(CNc3nccc(-c4ccc5ncccc5c4)c3F)ccc2c1` [Compound A-118]: the IC50 came out at 318 nM.
Turning to `N#Cc1ccc2nc(CNc3ncnc(N4CCc5ncccc5C4)c3F)ccc2c1` [Compound A-74], the IC50 was determined as 1.6 nM.
Regarding `Cc1cc(-c2ccc(CNc3cc(-c4ccc5ccccc5c4)nc(C)n3)cc2)ccn1` [Compound A-139], the IC50 was found to be 3000 nM.
Under `Cc1cc(-c2ncc(CNc3ncnc(-c4ccc5ccccc5c4)c3F)cc2C)ccn1` [Compound A-33] stands 1.4 nM; under `Cc1cc(-c2ncc(CNc3nsc(-c4cc5cccnc5cn4)n3)cc2F)ccn1` [Compound A-195], 0.84 nM.
With `Cc1cc(-c2ccc(CNc3ncnc(-c4ccc5ncccc5c4)n3)cc2)ccn1` [Compound A-160], the IC50 worked out at 6.7 nM.
On to `Cc1cc(-c2ncc(CNc3nccc(N4CCc5ncccc5C4)c3F)cc2F)ccn1` [Compound A-202, 4-(7,8-dihydro-1,6-naphthyridin-6(5H)-yl)-3-fluoro-N-((3-fluoro-2′-methyl-2,4′-bipyridin-5-yl)methyl)pyridin-2-amine], for which the IC50 is 0.5 nM.
Under `Cc1cc(-c2ncc(CNc3nccc(-c4ccc5ncccc5c4)n3)cc2C#N)ccn1` [Compound A-171] stands 0.31 nM.
As for `Cc1cc(-c2ccc(C(C)Nc3ncnc(-c4ccc5ccccc5c4)c3F)cc2)ccn1` (centres unmarked) [Compound A-28], the IC50 came out at 17 nM.
